Laboratory results taken from US8329717B2, “Pyrimidine derivatives and their use for controlling undesired plant growth” (Bayer Cropscience AG, priority 2008, dated 2012).

Legend:
[1] = logp (HCOOH), chemicophysical data; settings: HCOOH
Lolium multiflorum = test: Pre-emergence herbicidal effect; type: in vivo; settings: Dosage 320 g/ha, visual scoring after 3 weeks vs untreated controls, 100% = plants have died
Description: (§1) 1. Pre-Emergence Herbicidal Effect and Crop Plant Compatibility Seeds of monocotyledonous or dicotyledonous weed plants or crop plants are planted in wood-fiber pots in sandy loam and covered with earth. The compounds according to the invention, formulated in the form of wettable powders (WP) or as emulsion concentrates (EC), are then applied as aqueous suspension or emulsion at a water application rate of 600 to 800 l/ha (converted) with the addition of 0.2% of wetting agent to the surface of the covering earth. The dosage of the compounds according to the invention is given in grams per hectare. Following the treatment, the pots are placed in a greenhouse and kept under good growth conditions for the test plants. The visual scoring of the damage on the test plants is carried out after an experiment time of 3 weeks in comparison with untreated controls (herbicidal effect in percent (%): 100% effect=plants have died, 0% effect=as control plants). The following abbreviations are used in the tables below: [table]

Matricaria inodora = test: Pre-emergence herbicidal effect; type: in vivo; settings: Dosage 320 g/ha, visual scoring after 3 weeks vs untreated controls, 100% = plants have died
Description: as §1

Stellaria media = test: Pre-emergence herbicidal effect; type: in vivo; settings: Dosage 320 g/ha, visual scoring after 3 weeks vs untreated controls, 100% = plants have died
Description: as §1

Veronica persica = test: Pre-emergence herbicidal effect; type: in vivo; settings: Dosage 320 g/ha, visual scoring after 3 weeks vs untreated controls, 100% = plants have died
Description: as §1

Viola tricolor = test: Pre-emergence herbicidal effect; type: in vivo; settings: Dosage 320 g/ha, visual scoring after 3 weeks vs untreated controls, 100% = plants have died
Description: as §1

Amaranthus retroflexus = test: Pre-emergence herbicidal effect; type: in vivo; settings: Dosage 320 g/ha, visual scoring after 3 weeks vs untreated controls, 100% = plants have died
Description: as §1

Polygonum convolvulus = test: Pre-emergence herbicidal effect; type: in vivo; settings: Dosage 320 g/ha, visual scoring after 3 weeks vs untreated controls, 100% = plants have died
Description: as §1

Setaria viridis = test: Pre-emergence herbicidal effect; type: in vivo; settings: Dosage 320 g/ha, visual scoring after 3 weeks vs untreated controls, 100% = plants have died
Description: as §1

Echinochloa crus-galli = test: Pre-emergence herbicidal effect; type: in vivo; settings: Dosage 320 g/ha, visual scoring after 3 weeks vs untreated controls, 100% = plants have died
Description: as §1

Compound	logp (HCOOH) [1]	other results
Cc1nc(N[C@@H]2CCCc3ccccc32)nc(N)c1C(=O)OC1CCCCC1 [Example 1.255]	wax-like; logp (HCOOH): 2.03; 1H-NMR (CDCl3, 400 MHZ, δ in ppm): 2.10-2.65 (m,	
COC(=O)c1cc(N)nc(NC2CCCc3ccccc32)n1 (racemic) [Example 1.212]	wax-like; logp (HCOOH): 2.54; 1H-NMR (CDCl3, 400 MHZ, δ in ppm): 1.80-2.10 (m,	
N#Cc1c(N)nc(NC2CCCc3ccccc32)nc1C(F)(F)F (racemic) [Example 1.29]	solid; m.p.: 205.8° C.; logp (HCOOH): 3.43; 1H-NMR (CDCl3, 400 MHZ, δ in ppm): 1.85	
N#Cc1cnc(NC2CCc3cc(Cl)ccc32)nc1N (racemic) [Example 1.216]	wax-like; logp (HCOOH): 2.18; 1H-NMR (CDCl3, 400 MHZ, δ in ppm): 1.80 (m, 1H, 1H	
Cc1ccc2c(c1)[C@H](Nc1ncc(C)c(N)n1)[C@@H](C)C2 [Example 1.51]		Pre-emergence herbicidal effect LOLMU (Lolium multiflorum): 100%; Pre-emergence herbicidal effect MATIN (Matricaria inodora): 100%; Pre-emergence herbicidal effect STEME (Stellaria media): 100%; Pre-emergence herbicidal effect VERPE (Veronica persica): 100%
CC(=O)c1cnc(N[C@H]2c3cc(C)ccc3C[C@@H]2C)nc1N [Example 1.184]	wax-like; logp (HCOOH): 1.58; 1H-NMR (CDCl3, 400 MHZ, δ in ppm): 1.30 (d, 3H, CH3);	
COc1cccc(C#Cc2cnc(N[C@H]3c4cc(C)ccc4C[C@@H]3C)nc2N)c1 [Example 1.221]	wax-like; logp (HCOOH): 1.98; 1H-NMR (CDCl3, 400 MHZ, δ in ppm): 1.25 (d, 3H, CH3);	
Cc1ccc2c(c1)[C@H](Nc1nc(N)c(C#N)c(C(C)C)n1)[C@@H](C)C2 [Example 1.64]	wax-like; logp (HCOOH): 3.90; 1H-NMR (CDCl3, 400 MHZ, δ in ppm): 1.25 (m, 9H,	
Nc1nc(N[C@@H]2CCc3ccccc32)ncc1C(F)(F)F [Example 1.237]	wax-like; logp (HCOOH): 1.50; 1H-NMR (CDCl3, 400 MHZ, δ in ppm): 1.80 (m, 1H, 1H	
Cc1ccc2c(c1)[C@H](Nc1nc(N)cc(C(F)(F)F)n1)[C@@H](C)C2 [Example 1.214]	wax-like; logp (HCOOH): 1.59; 1H-NMR (CDCl3, 400 MHZ, δ in ppm): 1.30 (d, 3H, CH3);	
Cc1ccc2c(c1)[C@H](Nc1nc(N)cc(N(C)C)n1)[C@@H](C)C2 [Example 1.91]	wax-like; logp (HCOOH): 1.66; 1H-NMR (CDCl3, 400 MHZ, δ in ppm): 1.25 (d, 3H, CH3);	
Cc1nc(NC2CCCc3ccccc32)nc(N)c1[N+](=O)[O-] (racemic) [Example 1.124]		Pre-emergence herbicidal effect VIOTR (Viola tricolor): 100%; Pre-emergence herbicidal effect AMARE (Amaranthus retroflexus): 100%; Pre-emergence herbicidal effect MATIN (Matricaria inodora): 90%; Pre-emergence herbicidal effect POLCO (Polygonum convolvulus): 90%; Pre-emergence herbicidal effect STEME (Stellaria media): 100%; Pre-emergence herbicidal effect VERPE (Veronica persica): 100%; Pre-emergence herbicidal effect SETVI (Setaria viridis): 80%
Cc1ccc2c(c1)[C@H](Nc1ncc(C#Cc3ccc(F)c(Cl)c3)c(N)n1)[C@@H](C)C2 [Example 1.248]	wax-like; logp (HCOOH): 2.71; 1H-NMR (CDCl3, 400 MHZ, δ in ppm): 1.25 (d, 3H, CH3);	
Cc1ccc2c(c1)[C@H](Nc1ncc(C#CCC(C)C)c(N)n1)[C@@H](C)C2 [Example 1.249]	wax-like; logp (HCOOH): 1.73; 1H-NMR (CDCl3, 400 MHZ, δ in ppm): 1.00 (d, 6H,	
Cc1ccc2c(c1)[C@H](Nc1nc(C)cc(N)n1)[C@@H](C)C2 [Example 1.41]	wax-like; logp (HCOOH): 1.12; 1H-NMR (DMSO, 400 MHZ, δ in ppm): 1.15 (d, 3H, CH3);	
Cc1ccc2c(c1)[C@H](Nc1ncc(C#CCO)c(N)n1)[C@@H](C)C2 [Example 1.222]	wax-like; logp (HCOOH): 1.04; 1H-NMR (CDCl3, 400 MHZ, δ in ppm): 1.25 (d, 3H, CH3);	
Cc1cccc2c1CCC2Nc1ncc(C(F)(F)F)c(N)n1 (racemic) [Example 1.254]	wax-like; logp (HCOOH): 1.75; 1H-NMR (CDCl3, 400 MHZ, δ in ppm): 2.10 (s, 3H,	
Cc1ccc2c(c1)[C@H](Nc1nc(N)c(C#N)c(-c3ccccc3C)n1)[C@@H](C)C2 [Example 1.77]	solid; logp (HCOOH): 3.83; 1H-NMR (CDCl3, 400 MHZ, δ in ppm): 1.25 (m, 3H, CH3);	
CC1(C)CC(Nc2ncc(C(F)(F)F)c(N)n2)c2cc(F)c(Cl)cc2O1 (racemic) [Example 1.241]	wax-like; logp (HCOOH): 2.83; 1H-NMR (CDCl3, 400 MHZ, δ in ppm): 1.30 (s, 3H, CH3);	
Cc1nc(NC2(C)CCCc3ccccc32)nc(N)c1C#N (racemic) [Example 1.224]	wax-like; logp (HCOOH): 3.37; 1H-NMR (CDCl3, 400 MHZ, δ in ppm): 1.80 (m, 1H, 1H	
Cc1ccc2c(c1)[C@H](Nc1nc(N)c(C#N)c(C3(C)CC3)n1)[C@@H](C)C2 [Example 1.93]	wax-like; logp (HCOOH): 3.31; 1H-NMR (CDCl3, 400 MHZ, δ in ppm): 0.75 (m, 2H, CH2);	
C#Cc1cnc(N[C@@H]2CCCc3ccccc32)nc1N [Example 1.116]	wax-like; logp (HCOOH): 1.09; 1H-NMR (CDCl3, 400 MHZ, δ in ppm): 1.80 (m, 3H, 3H	

Compound	logp (HCOOH) [1]	other results
Cc1ccc2c(c1)[C@H](Nc1ncc(C#Cc3cccc(C(F)(F)F)c3)c(N)n1)[C@@H](C)C2 [Example 1.247]	wax-like; logp (HCOOH): 2.60; 1H-NMR (CDCl3, 400 MHZ, δ in ppm): 1.25 (d, 3H, CH3);	
Cc1ccc2c(c1)[C@H](Nc1ncc(C(F)(F)F)c(N)n1)[C@@H](C)C2 [Example 1.107]	wax-like, logp (HCOOH): 2.11; 1H-NMR (CDCl3, 400 MHZ, δ in ppm): 1.25 (d, 3H, CH3);	
Cc1ccc2c(c1)[C@H](Nc1nccc(N)n1)[C@@H](C)C2 [Example 1.38]	wax-like; logp (HCOOH): 1.25; 1H-NMR (CDCl3, 400 MHZ, δ in ppm): 1.25 (m, 3H, CH3);	
CCC(O)C#Cc1cnc(N[C@H]2c3cc(C)ccc3C[C@@H]2C)nc1N (stereo partly shown) [Example 1.251]	wax-like; logp (HCOOH): 1.48; 1H-NMR (CDCl3, 400 MHZ, δ in ppm): 1.00 (t, 3H, CH3);	
Nc1cc(Cl)nc(N[C@@H]2CCCc3ccccc32)n1 [Example 1.76]		Pre-emergence herbicidal effect AMARE (Amaranthus retroflexus): 90%; Pre-emergence herbicidal effect MATIN (Matricaria inodora): 100%; Pre-emergence herbicidal effect STEME (Stellaria media): 100%; Pre-emergence herbicidal effect VERPE (Veronica persica): 100%
CC1Cc2ccc(F)cc2C1Nc1ncc(C(F)(F)F)c(N)n1 (racemic) [Example 1.243]	wax-like; logp (HCOOH): 1.93; 1H-NMR (CDCl3, 400 MHZ, δ in ppm): 0.95 (d, 3H, CH3);	
Cc1nc(NC2CCOc3ccc(C(C)C)cc32)nc(N)c1C#N (racemic) [Example 1.27]	solid, m.p.: 158.8° C.; logp (HCOOH): 2.51; 1H-NMR (CDCl3, 400 MHZ, δ in ppm): 1.15	
CC(=O)OCC#Cc1cnc(N[C@H]2c3cc(C)ccc3C[C@@H]2C)nc1N [Example 1.252]	wax-like; logp (HCOOH): 1.59; 1H-NMR (CDCl3, 400 MHZ, δ in ppm): 1.25 (d, 3H, CH3);	
Cc1ccc2c(c1)C(Nc1ncc(I)c(N)n1)C(C)C2 (mixture of isomers) [Example 1.87]	wax-like; logp (HCOOH): 1.37; 1H-NMR (CDCl3, 400 MHZ, δ in ppm): 1.25 (d, 3H, CH3);	
CCc1ccc2c(c1)C(Nc1ncc(C(F)(F)F)c(N)n1)CCO2 (racemic) [Example 1.238]	wax-like; logp (HCOOH): 2.02; 1H-NMR (CDCl3, 400 MHZ, δ in ppm): 1.15 (t, 3H, CH3);	
CC(C)c1nc(N[C@@H]2CCCc3ccccc32)nc(N)c1C#N [Example 1.66]	wax-like; logp (HCOOH): 3.34; 1H-NMR (CDCl3, 400 MHZ, δ in ppm): 1.25 (m, 6H,	
Cc1ccc2c(c1)[C@H](Nc1nc(N)cc(-c3ccccc3)n1)[C@@H](C)C2 [Example 1.83]	wax-like; logp (HCOOH): 1.71; 1H-NMR (CDCl3, 400 MHZ, δ in ppm): 1.25 (m, 3H, CH3);	
Cc1cc(C)c2c(c1)C(Nc1ncc(C#N)c(N)n1)CCC2 (racemic) [Example 1.271]	wax-like; logp (HCOOH): 2.60; 1H-NMR (CDCl3, 400 MHZ, δ in ppm): 1.85 (m, 3H, 3H	
Cc1ccc(C2(c3nc(N[C@@H]4CCCc5ccccc54)nc(N)c3C#N)CC2)cc1 [Example 1.85]	wax-like; logp (HCOOH): 4.02; 1H-NMR (CDCl3, 400 MHZ, δ in ppm): 1.70-2.10 (br,	
C[Si](C)(C)C#Cc1cnc(N[C@@H]2CCCc3ccccc32)nc1N [Example 1.39]	wax-like; logp (HCOOH): 1.86; 1H-NMR (CDCl3, 400 MHZ, δ in ppm): 0.25 (s, 9H, CH3);	
Cc1nc(N[C@@H]2CCc3ccccc32)nc(N)c1[N+](=O)[O-] [Example 1.123]		Pre-emergence herbicidal effect VIOTR (Viola tricolor): 100%; Pre-emergence herbicidal effect ECHCG (Echinochloa crus-galli): 80%; Pre-emergence herbicidal effect AMARE (Amaranthus retroflexus): 100%; Pre-emergence herbicidal effect MATIN (Matricaria inodora): 100%; Pre-emergence herbicidal effect STEME (Stellaria media): 100%; Pre-emergence herbicidal effect VERPE (Veronica persica): 100%
Cc1nc(NC2CCc3cc(Cl)ccc32)nc(N)c1C#N (racemic) [Example 1.217]	wax-like; logp (HCOOH): 2.21; 1H-NMR (CDCl3, 400 MHZ, δ in ppm): 1.80 (m, 1H, 1H	
COc1ccc2c(c1)C(Nc1ncc(C(F)(F)F)c(N)n1)CCO2 (racemic) [Example 1.239]	wax-like; logp (HCOOH): 1.46	
Cc1ccccc1-c1nc(N[C@@H]2CCCc3ccccc32)nc(N)c1C#N [Example 1.78]	solid; logp (HCOOH): 3.41; 1H-NMR (CDCl3, 400 MHZ, δ in ppm): 1.85-2.05 (br, 4H,	
COC(=O)c1cc(N)nc(N[C@H]2c3cc(C)ccc3C[C@@H]2C)n1 [Example 1.118]	wax-like; logp (HCOOH): 2.96; 1H-NMR (CDCl3, 400 MHZ, δ in ppm): 1.30 (d, 3H, CH3);	
N#Cc1c(N)nc(N[C@@H]2CCCc3ccccc32)nc1C1(c2ccc(Cl)cc2Cl)CC1 [Example 1.86]	wax-like; logp (HCOOH): 5.15; 1H-NMR (CDCl3, 400 MHZ, δ in ppm): 1.25 (br, 2H,	
CC1(c2nc(N[C@@H]3CCCc4ccccc43)nc(N)c2C#N)CC1 [Example 1.84]	wax-like; logp (HCOOH): 2.63; 1H-NMR (CDCl3, 400 MHZ, δ in ppm): 0.75 (m, 2H, CH2);	
